# Legend:
# Format in all cases: physicochemical
# [1] = Water adsorption by dynamic vapour sorption (DVS); conditions: 25° C., 0%-95% relative humidity, adsorption-desorption
# Experimental: Water adsorption properties of the crystalline Form II of CDB-4124 were measured by dynamic vapour sorption technique (DVS). […]
# [2] = Solubility at 25° C. in solvent (MeOH)
# Source text: Form I is a monotropic modification of CDB-4124 such as Form II. […] Furthermore, Form I can be transformed into Form II via crystallization from different medium.
# [3] = Fast stability test (storage on a plate at 40° C. in air, impurity by HPLC); conditions: for Impurity / N-demethyl-derivative of CDB-4124: HPLC; for Impurity, Σ (increase Day 0 to Day 10) / N-demethyl-derivative of CDB-4124, Σ (increase Day 0 to Day 10): Σ over 10 days, in the presence of air
# Experimental: Amorphous and crystalline forms were stored on a plate at 40° C. in the presence of air for 10 days. Impurity was measured at different times using an HPLC equipment. […]
Structure (SMILES),change of mass as the degree of humidity was increased [1],solubility [2],"Impurity ([3]; Day 0, in the presence of air)","N-demethyl-derivative of CDB-4124 ([3]; Day 0, in the presence of air)","Impurity ([3]; Day 1, in the presence of air)","N-demethyl-derivative of CDB-4124 ([3]; Day 1, in the presence of air)","Impurity ([3]; Day 2, in the presence of air)","N-demethyl-derivative of CDB-4124 ([3]; Day 2, in the presence of air)","Impurity ([3]; Day 6, in the presence of air)","N-demethyl-derivative of CDB-4124 ([3]; Day 6, in the presence of air)","Impurity ([3]; Day 10, in the presence of air)","N-demethyl-derivative of CDB-4124 ([3]; Day 10, in the presence of air)","Impurity, Σ (increase Day 0 to Day 10) [3]","N-demethyl-derivative of CDB-4124, Σ (increase Day 0 to Day 10) [3]"
"COCC(=O)[C@@]1(OC(C)=O)CC[C@H]2[C@@H]3CCC4=CC(=O)CCC4=C3[C@@H](c3ccc(N(C)C)cc3)C[C@@]21C [Form II, 17α-acetoxy-21-methoxy-11β-[4-N,N-dimethylaminophenyl]-19-norpregna-4,9-diene-3,20-dione]",barely changed,23 mg/mL,0.14%,0.02%,0.14%,0.02%,0.14%,0.02%,0.15%,0.02%,0.17%,0.03%,0.03%,0.01%
"COCC(=O)[C@@]1(OC(C)=O)CC[C@H]2[C@@H]3CCC4=CC(=O)CCC4=C3[C@@H](c3ccc(N(C)C)cc3)C[C@@]21C [Amorphous form, 17α-acetoxy-21-methoxy-11β-[4-N,N-dimethylaminophenyl]-19-norpregna-4,9-diene-3,20-dione, reference compound]",–,–,0.87%,0.15%,0.97%,0.21%,1.03%,0.25%,1.63%,0.55%,1.97%,0.73%,1.1%,0.58%
"COCC(=O)[C@@]1(OC(C)=O)CC[C@H]2[C@@H]3CCC4=CC(=O)CCC4=C3[C@@H](c3ccc(N(C)C)cc3)C[C@@]21C [Form I, 17α-acetoxy-21-methoxy-11β-[4-N,N-dimethylaminophenyl]-19-norpregna-4,9-diene-3,20-dione, reference compound]",–,500 mg/mL,–,–,–,–,–,–,–,–,–,–,–,–
